# Reference: patent US20090304692A1, “TRIAZINE COMPOUNDS AS PI3 KINASE AND MTOR INHIBITORS” (Wyeth, priority 2008, published 2009)
# pIC50: −log10 of the molar value. Where two headings read alike, the source gives them in different places.
# Experiments:
# Human mTOR (FLAG-TOR) = Human mTOR (FLAG-TOR) (Homo sapiens, UniProt P42345); test: mTOR kinase assay (DELFIA format, purified enzyme); type: biochemical; conditions: read-out: IC50 mTOR
# [1] = system: human breast MDA-MB-361 tumor cell line; test: In vitro cell culture growth assay (MTS), MDA-MB-361; type: cell-based; conditions: Homo sapiens, MTS cell growth assay, three days after drug treatment, MDA-MB-361 cells, read-out: IC50 MDA-MB-361
# [2] = system: human prostate PC3-mm2 tumor cell line; test: In vitro cell culture growth assay (MTS), PC3-mm2; type: cell-based; conditions: Homo sapiens, PC3MM2, 72 h, MTS cell growth assay, three days after drug treatment, PC3-mm2 cells; read-out: IC50 PC3-mm2
# PI3K-α = PI3K-α (Homo sapiens, UniProt P42336); test: PI3K-alpha fluorescence polarization assay; conditions: read-out: IC50 PI3Kα
# PI3K-α, sequence (P42336 whole entry, species assumed): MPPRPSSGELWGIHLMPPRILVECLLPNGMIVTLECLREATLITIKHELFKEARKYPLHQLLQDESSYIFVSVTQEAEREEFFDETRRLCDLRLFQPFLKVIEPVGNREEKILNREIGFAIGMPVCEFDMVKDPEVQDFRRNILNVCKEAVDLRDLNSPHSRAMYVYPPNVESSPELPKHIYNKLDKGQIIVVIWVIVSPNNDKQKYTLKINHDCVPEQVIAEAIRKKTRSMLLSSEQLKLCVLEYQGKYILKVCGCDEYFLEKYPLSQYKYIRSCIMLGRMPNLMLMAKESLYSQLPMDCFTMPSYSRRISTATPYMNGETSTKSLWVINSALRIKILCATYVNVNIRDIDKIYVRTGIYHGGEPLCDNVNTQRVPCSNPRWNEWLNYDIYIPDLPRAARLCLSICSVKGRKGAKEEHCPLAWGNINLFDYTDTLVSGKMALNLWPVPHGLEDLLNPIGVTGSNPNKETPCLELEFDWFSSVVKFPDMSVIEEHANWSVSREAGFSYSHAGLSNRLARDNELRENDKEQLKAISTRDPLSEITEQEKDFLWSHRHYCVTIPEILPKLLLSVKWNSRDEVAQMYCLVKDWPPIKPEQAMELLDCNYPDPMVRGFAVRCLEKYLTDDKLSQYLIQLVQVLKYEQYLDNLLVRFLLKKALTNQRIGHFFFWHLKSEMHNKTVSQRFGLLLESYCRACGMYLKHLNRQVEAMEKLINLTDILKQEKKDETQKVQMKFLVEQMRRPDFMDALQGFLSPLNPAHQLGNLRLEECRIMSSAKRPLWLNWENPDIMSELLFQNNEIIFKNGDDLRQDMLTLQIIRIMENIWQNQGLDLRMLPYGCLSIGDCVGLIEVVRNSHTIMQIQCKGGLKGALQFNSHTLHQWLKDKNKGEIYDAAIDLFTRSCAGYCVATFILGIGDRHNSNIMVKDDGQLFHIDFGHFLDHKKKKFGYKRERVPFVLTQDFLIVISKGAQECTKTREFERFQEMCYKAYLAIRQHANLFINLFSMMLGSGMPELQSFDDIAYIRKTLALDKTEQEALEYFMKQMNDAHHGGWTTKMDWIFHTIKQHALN
# PI3K-α, sequence (P27986 whole entry partner, species assumed): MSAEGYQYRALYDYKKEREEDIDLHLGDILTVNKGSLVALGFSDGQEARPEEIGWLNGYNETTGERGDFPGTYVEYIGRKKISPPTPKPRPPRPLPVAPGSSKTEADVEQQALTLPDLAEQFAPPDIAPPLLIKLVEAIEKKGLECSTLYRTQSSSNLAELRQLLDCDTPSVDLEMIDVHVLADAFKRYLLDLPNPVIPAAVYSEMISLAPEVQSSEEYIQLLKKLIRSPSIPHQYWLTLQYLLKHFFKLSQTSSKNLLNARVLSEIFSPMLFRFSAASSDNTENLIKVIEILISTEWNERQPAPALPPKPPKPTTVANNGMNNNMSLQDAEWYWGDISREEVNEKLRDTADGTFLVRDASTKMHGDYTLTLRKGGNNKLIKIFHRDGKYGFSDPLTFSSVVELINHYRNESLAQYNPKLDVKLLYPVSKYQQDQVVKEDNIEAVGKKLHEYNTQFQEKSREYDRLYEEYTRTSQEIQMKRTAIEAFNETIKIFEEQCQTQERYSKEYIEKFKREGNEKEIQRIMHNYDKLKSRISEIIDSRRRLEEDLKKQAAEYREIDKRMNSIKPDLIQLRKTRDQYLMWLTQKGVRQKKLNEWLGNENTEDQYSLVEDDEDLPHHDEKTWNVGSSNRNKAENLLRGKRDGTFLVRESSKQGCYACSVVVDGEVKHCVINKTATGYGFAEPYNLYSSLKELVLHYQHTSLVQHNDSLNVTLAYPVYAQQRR
# PI3K-γ = PI3K-γ (Homo sapiens, UniProt P48736); test: PI3K-gamma fluorescence polarization assay; conditions: read-out: IC50 PI3Kγ
# PI3K-γ, sequence (P48736 whole entry, species assumed): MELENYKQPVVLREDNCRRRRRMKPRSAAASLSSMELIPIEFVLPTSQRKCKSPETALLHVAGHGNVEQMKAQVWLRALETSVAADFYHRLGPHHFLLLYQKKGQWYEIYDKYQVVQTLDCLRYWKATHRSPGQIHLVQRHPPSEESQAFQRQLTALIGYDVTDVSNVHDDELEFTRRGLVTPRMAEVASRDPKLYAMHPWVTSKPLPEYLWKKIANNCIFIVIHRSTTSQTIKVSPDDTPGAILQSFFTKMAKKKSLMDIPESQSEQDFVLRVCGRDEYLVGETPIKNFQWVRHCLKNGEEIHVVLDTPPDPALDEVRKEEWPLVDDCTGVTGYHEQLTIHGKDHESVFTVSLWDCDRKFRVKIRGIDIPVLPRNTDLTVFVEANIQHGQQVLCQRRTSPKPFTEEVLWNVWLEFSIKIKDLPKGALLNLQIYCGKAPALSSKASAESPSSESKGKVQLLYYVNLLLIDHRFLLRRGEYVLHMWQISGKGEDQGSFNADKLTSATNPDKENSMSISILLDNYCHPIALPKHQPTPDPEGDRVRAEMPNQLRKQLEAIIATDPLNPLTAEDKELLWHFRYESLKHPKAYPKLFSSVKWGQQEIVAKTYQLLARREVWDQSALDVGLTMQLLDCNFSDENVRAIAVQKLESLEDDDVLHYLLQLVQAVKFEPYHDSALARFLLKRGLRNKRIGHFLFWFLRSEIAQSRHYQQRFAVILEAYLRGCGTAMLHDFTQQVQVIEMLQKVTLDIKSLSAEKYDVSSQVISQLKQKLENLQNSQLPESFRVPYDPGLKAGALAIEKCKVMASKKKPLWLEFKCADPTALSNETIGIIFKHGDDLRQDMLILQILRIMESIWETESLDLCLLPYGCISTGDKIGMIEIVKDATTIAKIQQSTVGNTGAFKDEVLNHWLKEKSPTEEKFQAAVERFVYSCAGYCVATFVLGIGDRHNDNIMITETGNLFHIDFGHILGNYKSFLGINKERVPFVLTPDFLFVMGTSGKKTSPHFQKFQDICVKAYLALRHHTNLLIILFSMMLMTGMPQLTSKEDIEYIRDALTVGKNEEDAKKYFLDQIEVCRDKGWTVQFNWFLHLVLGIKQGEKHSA
# Human mTOR (FLAG-TOR), sequence (P42345 1360-2549 limits assumed): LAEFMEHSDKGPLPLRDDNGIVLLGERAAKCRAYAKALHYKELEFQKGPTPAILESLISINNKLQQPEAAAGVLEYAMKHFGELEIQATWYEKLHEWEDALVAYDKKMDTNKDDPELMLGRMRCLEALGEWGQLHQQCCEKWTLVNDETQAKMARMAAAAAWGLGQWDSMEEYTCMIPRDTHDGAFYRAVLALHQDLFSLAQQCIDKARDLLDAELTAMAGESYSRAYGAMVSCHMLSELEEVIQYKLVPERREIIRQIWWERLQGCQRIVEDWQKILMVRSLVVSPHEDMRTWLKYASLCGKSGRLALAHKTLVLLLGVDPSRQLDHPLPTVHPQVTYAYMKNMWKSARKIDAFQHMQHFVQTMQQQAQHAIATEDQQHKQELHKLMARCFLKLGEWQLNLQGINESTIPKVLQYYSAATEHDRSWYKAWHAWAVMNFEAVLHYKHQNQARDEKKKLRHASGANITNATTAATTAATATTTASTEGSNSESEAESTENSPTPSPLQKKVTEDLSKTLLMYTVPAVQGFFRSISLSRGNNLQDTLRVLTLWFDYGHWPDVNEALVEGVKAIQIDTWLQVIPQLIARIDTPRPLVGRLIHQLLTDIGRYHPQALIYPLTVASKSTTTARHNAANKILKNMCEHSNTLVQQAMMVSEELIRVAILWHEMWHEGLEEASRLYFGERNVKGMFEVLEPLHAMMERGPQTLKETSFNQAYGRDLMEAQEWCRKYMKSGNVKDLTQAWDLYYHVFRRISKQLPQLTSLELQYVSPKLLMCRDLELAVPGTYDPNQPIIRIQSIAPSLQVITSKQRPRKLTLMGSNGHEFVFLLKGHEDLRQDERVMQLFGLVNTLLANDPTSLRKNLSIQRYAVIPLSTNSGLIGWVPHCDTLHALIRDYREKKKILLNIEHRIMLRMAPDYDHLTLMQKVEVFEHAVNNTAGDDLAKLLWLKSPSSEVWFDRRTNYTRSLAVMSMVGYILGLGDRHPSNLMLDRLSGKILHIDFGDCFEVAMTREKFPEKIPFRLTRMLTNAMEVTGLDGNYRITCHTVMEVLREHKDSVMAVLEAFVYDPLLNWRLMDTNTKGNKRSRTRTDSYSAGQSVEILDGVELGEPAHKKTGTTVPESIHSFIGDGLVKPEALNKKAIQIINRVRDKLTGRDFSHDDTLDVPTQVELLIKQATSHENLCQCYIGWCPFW
SMILES,pIC50 (Human mTOR (FLAG-TOR)),"pIC50 ([1]; MDA-MB-361, 72 h)",pIC50 [2],pIC50 (PI3K-α),pIC50 (PI3K-γ),pIC50 ([1]; 72 h)
"O=C(Nc1ccc(C(=O)N2CCCC2)cc1)Nc1ccc(-c2nc(N3CCCC3)nc(N3CCOCC3)n2)cc1 [Example 612, 1-[4-(4-morpholin-4-yl-6-pyrrolidin-1-yl-1,3,5-triazin-2-yl)phenyl]-3-[4-(pyrrolidin-1-ylcarbonyl)phenyl]urea]",7.21,7.42,6.64,8.26,7.17,
"CCN1CCN(C(=O)c2ccc(NC(=O)Nc3ccc(-c4nc(N5CCOC[C@@H]5C)nc(N5CCOC[C@@H]5C)n4)cc3)cc2)CC1 [Example 613, 1-(4-{4,6-bis[(3S)-3-methylmorpholin-4-yl]-1,3,5-triazin-2-yl}phenyl)-3-{4-[(4-ethylpiperazin-1-yl)carbonyl]phenyl}urea]",9.00,,7.68,8.42,7.27,8.22
"CC(C)N1CCN(C(=O)c2ccc(NC(=O)Nc3ccc(-c4nc(N5CCOC[C@@H]5C)nc(N5CCOC[C@@H]5C)n4)cc3)cc2)CC1 [Example 614, 1-(4-{4,6-bis[(3S)-3-methylmorpholin-4-yl]-1,3,5-triazin-2-yl}phenyl)-3-(4-{[4-(1-methylethyl)piperazin-1-yl]carbonyl}phenyl)urea]",9.00,,7.82,8.57,7.49,8.40
"COC(=O)c1ccc(NC(=O)Nc2ccc(-c3nc(N4CCOCC4)nc(N4CCOC[C@@H]4C)n3)cc2)cc1 [Example 615, methyl 4-{[(4-{4-[(3S)-3-methylmorpholin-4-yl]-6-morpholin-4-yl-1,3,5-triazin-2-yl}phenyl)carbamoyl]amino}benzoate]",9.00,,6.91,7.58,6.94,7.06
"C[C@H]1COCCN1c1nc(-c2ccc(NC(=O)Nc3ccc(C(=O)N4CCC(N(C)C)CC4)cc3)cc2)nc(N2CCOC[C@@H]2C)n1 [Example 616, 1-(4-{4,6-bis[(3S)-3-methylmorpholin-4-yl]-1,3,5-triazin-2-yl}phenyl)-3-(4-{[4-(dimethylamino)piperidin-1-yl]carbonyl}phenyl)urea]",9.00,8.40,7.68,8.40,7.23,
"C[C@H]1COCCN1c1nc(-c2ccc(NC(=O)Nc3ccc(C(=O)N4CCN(C)CC4)cc3)cc2)nc(N2CCOCC2)n1 [Example 617, 1-(4-{4-[(3S)-3-methylmorpholin-4-yl]-6-morpholin-4-yl-1,3,5-triazin-2-yl}phenyl)-3-{4-[(4-methylpiperazin-1-yl)carbonyl]phenyl}urea]",9.00,8.40,7.77,8.60,7.57,
"CC(C)N1CCN(C(=O)c2ccc(NC(=O)Nc3ccc(-c4nc(N5CCOCC5)nc(N5CCOC[C@@H]5C)n4)cc3)cc2)CC1 [Example 618, 1-(4-{[4-(1-methylethyl)piperazin-1-yl]carbonyl}phenyl)-3-(4-{4-[(3S)-3-methylmorpholin-4-yl]-6-morpholin-4-yl-1,3,5-triazin-2-yl}phenyl)urea]",9.00,8.70,7.89,8.70,7.73,
"CCN1CCN(C(=O)c2ccc(NC(=O)Nc3ccc(-c4nc(N5CCOCC5)nc(N5CCOC[C@@H]5C)n4)cc3)cc2)CC1 [Example 620, 1-{4-[(4-ethylpiperazin-1-yl)carbonyl]phenyl}-3-(4-{4-[(3S)-3-methylmorpholin-4-yl]-6-morpholin-4-yl-1,3,5-triazin-2-yl}phenyl)urea]",8.52,8.40,7.80,8.40,7.49,
"C[C@H]1COCCN1c1nc(-c2ccc(NC(=O)Nc3ccc(C(=O)NCCCN(C)C)cc3)cc2)nc(N2CCOCC2)n1 [Example 621, N-[3-(dimethylamino)propyl]-4-{[(4-{4-[(3S)-3-methylmorpholin-4-yl]-6-morpholin-4-yl-1,3,5-triazin-2-yl}phenyl)carbamoyl]amino}benzamide]",9.00,,7.46,8.46,7.36,8.10
"C[C@@H]1COCCN1c1nc(-c2ccc(NC(=O)Nc3ccc(C(=O)N4CCN(C)CC4)cc3)cc2)nc(N2CCOC[C@@H]2C)n1 [Example 623, 1-(4-{4-[(3R)-3-methylmorpholin-4-yl]-6-[(3S)-3-methylmorpholin-4-yl]-1,3,5-triazin-2-yl}phenyl)-3-{4-[(4-methylpiperazin-1-yl)carbonyl]phenyl}urea]",9.00,,7.49,7.90,6.98,8.22
"CCCN(CCC)C1CCN(C(=O)c2ccc(NC(=O)Nc3ccc(-c4nc(N5CCOC[C@@H]5C)nc(N5CCOC[C@@H]5C)n4)cc3)cc2)CC1 [Example 624, 1-(4-{4,6-bis[(3S)-3-methylmorpholin-4-yl]-1,3,5-triazin-2-yl}phenyl)-3-(4-{[4-(dipropylamino)piperidin-1-yl]carbonyl}phenyl)urea]",9.00,8.40,7.72,7.76,7.23,
